Experimental data published in patent US20230220047A1, “PEPTIDES FOR TREATMENT OF SEPSIS AND CANCER” (NORWEGIAN UNIVERSITY OF SCIENCE AND TECHNOLOGY (NTNU), priority 2020, published 2023).

Key:
TLR4 = test: qPCR of LPS-mediated cytokine mRNA expression in THP-1 macrophages; type: cell-based, human; conditions: for IFNβ and CXCL10 mRNA expression: 30 min pre-treatment, LPS
Procedure: SW480 (ATCC CCL-228) and Jurkat (ATCC Clone E6-1; TIB-152) cells were cultured in RPMI 1640 (Sigma-Aldrich, Schnelldorf, Germany) supplemented with 10% heat-inactivated FCS, penicillin/streptomycin (Life Technologies) and 20 mM L-Glutamine. THP-1 cells (ATCC TIB-202) were cultured in RPMI-1640 (high-glucose, ATCC) supplemented with 10% heat inactivated foetal calf serum (FCS), 100 nM penicillin/streptomycin and 5 μM β-mercaptoethanol (Sigma). THP-1 cells were differentiated with 60 ng/ml phorbol 12-myristate 13-acetate (PMA, Sigma) for 72 h, followed by 24 or 48 h in medium without PMA.
Total RNA was isolated from the cells using Qiazol reagent #79306 from QIAGEN, and chloroform extraction followed by purification on RNeasy Mini columns with DNAse digestion (Qiagen). cDNA was prepared using the Maxima First Strand cDNA Synthesis Kit for quantitative real-time polymerase chain reaction (RT-qPCR) (Thermo Fisher Scientific) according to the manufacturer's protocol. qPCR was performed using the PerfeCTa qPCR FastMix (Quanta Biosciences) in replicates and cycled in a StepOnePlus™ Real-Time PCR cycler. The following TaqMan® Gene Expression Assays (Applied Biosystems®) were used: IFNβ (Hs01077958_s1), TNF (Hs00174128_m1), TBP (Hs00427620_m1), CXCL10 (Hs01124251_g1), IL-6 (Hs00174131_m1) and IL-1β (Hs01555410_m1), for human cells; Ifnβ (Mm00439552_s1), Tnf (Mm00443258_m1), Tbp (Mm01277042_m1) and II-1β (Mm00434228_m1), for mouse cells. No RT controls were negative. The level of TBP mRNA was used for normalisation and results presented as relative expression compared to the control untreated sample. Relative expression was calculated using Pfaffl's mathematical model (Pfaffl, Nucleic Acids Research 29(9): e45, 2001). Results are presented as the mean and SD expression fold change for biological replicates relative to non-stimulated cells. Statistical significance was evaluated in GraphPad Prizm 5.03. Data distribution was assumed to be normal but this was not formally tested. The difference between the two groups was determined by two-tailed t test.

E. coli particles = test: Whole blood assay, E. coli particle stimulation; type: cell-based, human
primary human monocytes = test: Confocal analysis of E. coli particle uptake by primary human monocytes; type: cell-based; conditions: 15 μM, level comparable with CytoD treated cells
Procedure: Cells were pre-incubated with Pen or P7-Pen peptides, followed by addition of Alexa Fluor 488-labeled bioparticles for the times indicated (15, 30 or 45 min). Fluorescent bacteria particles were counted by spot-detection in Bitplane Imaris imaging software and used to calculate the number of particles per cell. […] Pre-incubation with 3 μM cytochalasin D (CytoD, and inhibitor of actin polymerization) inhibited uptake of E. coli to a similar extent as P7-Pen.
THP-1 cells, THP-1^cherry cells or human PBMC were seeded in 24-well glass-bottom plates (MatTek Corporation), 125,000 cells/well. The THP-1 cells were differentiated into macrophages with 60 ng/ml PMA for 72 h and thereafter rested for 48 h, whereas the PBMC were used the day after isolation. The P7-penatratin peptide or control peptide was added to the cells 30 min before stimulation at 15 μM concentration. If used, 3 μM cytochalasin D (CytoD) was added simultaneously. […] A spot detection mode in the Bitplan Imaris software was used to define individual phagosomes and cells were counted manually. […] Fluorescence voxel intensity of TRAM^cherry at the phagosome is also presented. Statistical significance was calculated in GraphPad Prism by One-way ANOVA Kruskal-Wallis multiple comparison test. […]

| Substance | IFNβ and CXCL10 mRNA expression (TLR4; 10 μM) | E. coli-mediated IFNβ secretion (E. coli particles; 20 μM, 4 h) | E. coli-mediated IL-1β secretion (E. coli particles; 20 μM, 4 h) | E. coli-mediated TNF production (E. coli particles; 20 μM, 4 h) | E. coli-mediated IL-6 (E. coli particles; 20 μM, 4 h, not statistically significant) | uptake of E. coli particles (primary human monocytes) | LPS-mediated IFNβ, CXCL10 and TNF expression (TLR4; 10 μM, 1 h pre-treatment, LPS 100 ng/ml) | expression of IFNβ, CXCL10 and TNF mRNA (TLR4; 20 μM, 1 h pre-treatment, LPS 100 ng/ml) | LPS-induced cytokine expression levels (IFNβ, TNF and CXCL10 mRNA) (TLR4; peptide removed from media after pre-treatment, before LPS stimulation (data not shown)) | E. coli-mediated IFNβ secretion by whole blood cells (E. coli particles; pilot assay, 10 μM, E. coli particles) |
| --- | --- | --- | --- | --- | --- | --- | --- | --- | --- | --- |
| Ac-ITVYASVTLTGRQIKIWFQNRRMKWKK-NH2 [Peptide P7-Pen] | reduced | significantly inhibiting | no significant effect | Significant inhibition | a degree of inhibition | inhibited |  |  |  |  |
| Ac-ITVYASVTLTGRRRRRRRRRRR-NH2 [Peptide P7-Arg11] | reduced |  |  |  |  |  | clear inhibitory effect | totally inhibited | No changes | inhibited |
